Test: Common metabolites in rat plasma by GC-MS/MS after polyI:C and/or maoto
Assay type: in vivo
Procedure: Distilled water and saline were administered as vehicle to rats in each control group. […] Plasma cytokine levels were measured by ELISA or multiplex immunoassay; common metabolites and lipid mediators were analyzed by GC-MS/MS and LC-MS/MS, respectively.
1 The concentrations of TNF-α and IL-6 in plasma samples were evaluated by
2 ELISA (R&D Systems, Minneapolis, MN, USA). Multiplex immunoassays
3 (Milliplex, Merck KGaA, Darmstadt, Germany) were performed to quantify the
4 concentrations of IL-1β, IL-10 and INF-γ. Assays were performed according to
5 the manufacturer’s protocol.
If any outliers in the data set were determined to
10 be due to artifacts, they were excluded from the analysis. Data are presented as
11 mean ± SEM. Statistical significance of the data was determined by Welch’s
12 t-test with Bonferroni correction. The significance level in each statistical
13 analysis was set at P<0.05.
14 Analysis of metabolites by GC-MS/MS
15 Plasma samples obtained at 1, 2, 6 and 20 h after treatment were used for
16 analysis. To extract low molecular weight metabolites for GC-MS/MS analysis, […]

[1] = PM/P (polyI:C+maoto vs polyI:C), 1h
[2] = PM/P (polyI:C+maoto vs polyI:C), 2h
[3] = PM/P (polyI:C+maoto vs polyI:C), 6h
[4] = PM/P (polyI:C+maoto vs polyI:C), 20h

| SMILES | log2FC of plasma level (M/C (maoto vs control), 1h) | log2FC of plasma level (M/C (maoto vs control), 2h) | log2FC of plasma level (M/C (maoto vs control), 6h) | log2FC of plasma level (M/C (maoto vs control), 20h) | log2FC of plasma level (P/C (polyI:C vs control), 1h) | log2FC of plasma level (P/C (polyI:C vs control), 2h) | log2FC of plasma level (P/C (polyI:C vs control), 6h) | log2FC of plasma level (P/C (polyI:C vs control), 20h) | log2FC of plasma level [1] | log2FC of plasma level [2] | log2FC of plasma level [3] | log2FC of plasma level [4] |
| --- | --- | --- | --- | --- | --- | --- | --- | --- | --- | --- | --- | --- |
| NCC(=O)O [Glycine] | -0.06 | -0.10 | -0.14 | -0.06 | -0.03 | -0.01 | -0.02 | -0.30 | -0.12 | -0.42 | -0.02 | 0.0873 |
| O=C(O)Cc1cc(O)ccc1O [Homogentisic acid] | 0.60 | -0.05 | 0.23 | 0.79 | -0.05 | 0.24 | 0.10 | 0.75 | 0.68 | -0.76 | -0.18 | 0.0612 |
| O=C[C@H](O)[C@H](O)[C@H](O)CO [Ribose] | 0.41 | 0.05 | -0.22 | 0.16 | 1.05 | 0.63 | -0.22 | -0.34 | -1.38 | -0.72 | -0.21 | 0.2160 |
| O=C(CO)C(O)C(O)CO (stereo not drawn) [Ribulose] | 0.30 | 0.01 | 0.06 | 0.08 | 0.24 | 0.14 | 0.10 | -0.04 | -0.26 | -0.26 | 0.02 | 0.0374 |
| NC(N)=O [Urea] | 0.05 | -0.01 | -0.09 | -0.07 | -0.01 | 0.02 | -0.05 | 0.03 | -0.02 | -0.03 | -0.13 | 0.0096 |

— paper PMC5654968 (NPJ Systems Biology and Applications, 2017)
